Laboratory results from patent US9458198B1, “Cyclic peptide-based NPR-B agonists” (priority 2009, dated 2016).
pEC50: −log10 of the molar value. Where a SMILES comes first, the peptide text is derived from it. Bridges are numbered along the chain shown (N, C = ends).

Target: T1, NPR-B (Homo sapiens, UniProt P20594)
T1 construct: a functional assay using endogenously NPR-B expressing GTM-3 cells; endogenous in cells; host or cells: GTM-3 (transformed human trabecular meshwork cells)
T1 sequence (P20594 23-1047): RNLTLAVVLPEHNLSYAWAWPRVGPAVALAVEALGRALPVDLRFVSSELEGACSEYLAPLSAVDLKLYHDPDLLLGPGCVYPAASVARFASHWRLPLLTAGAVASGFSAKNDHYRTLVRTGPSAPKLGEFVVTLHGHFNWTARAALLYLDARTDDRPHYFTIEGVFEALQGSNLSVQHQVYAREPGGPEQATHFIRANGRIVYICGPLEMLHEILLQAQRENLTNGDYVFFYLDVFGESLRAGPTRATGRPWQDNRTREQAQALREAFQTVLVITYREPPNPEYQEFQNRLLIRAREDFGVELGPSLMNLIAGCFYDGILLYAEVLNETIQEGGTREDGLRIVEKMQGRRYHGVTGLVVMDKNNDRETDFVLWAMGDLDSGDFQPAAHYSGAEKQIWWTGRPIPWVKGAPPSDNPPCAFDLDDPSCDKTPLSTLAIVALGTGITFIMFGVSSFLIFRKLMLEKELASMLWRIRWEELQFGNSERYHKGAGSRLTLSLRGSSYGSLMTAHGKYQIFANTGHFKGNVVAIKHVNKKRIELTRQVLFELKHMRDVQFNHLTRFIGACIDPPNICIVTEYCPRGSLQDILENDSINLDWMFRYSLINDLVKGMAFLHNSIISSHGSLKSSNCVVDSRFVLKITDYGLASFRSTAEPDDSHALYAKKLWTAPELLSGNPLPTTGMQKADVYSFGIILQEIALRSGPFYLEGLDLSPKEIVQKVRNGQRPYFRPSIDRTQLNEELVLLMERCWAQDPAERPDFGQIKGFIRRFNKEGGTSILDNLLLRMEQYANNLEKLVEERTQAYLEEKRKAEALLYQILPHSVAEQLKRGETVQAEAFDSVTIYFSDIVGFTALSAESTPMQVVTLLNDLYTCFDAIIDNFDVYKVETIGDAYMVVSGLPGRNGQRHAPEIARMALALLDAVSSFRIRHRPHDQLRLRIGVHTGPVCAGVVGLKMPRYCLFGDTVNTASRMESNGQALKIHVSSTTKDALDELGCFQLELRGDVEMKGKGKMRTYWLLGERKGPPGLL
Experiment: NPR-B induced production of cyclic GMP in GTM-3 cells
Assay type: cell-based
Conditions: Activity (group): NPR-B activation, EC50 and Emax (CNP = 100%), GTM-3 cells; group needs both EC50 and Emax criteria, checked A then B then C
Description: The efficacy and potency of compounds to activate NPR-B were evaluated in a functional assay using endogenously NPR-B expressing GTM-3 cells (Pang et al. 1994, Curr Eye Res 13:51-63). In this assay the dose dependent production of cyclic GMP (cGMP) is determined and Emax (maximum activation) and EC50 values are calculated.
The cell culture medium is aspirated and each well is washed with 200 μl DMEM/Ham's F12=Medium (Gibco). Then, 200 μl Medium supplemented with 1 mM IBMX (3-Isobutyl-1-methyl-xanthin, Sigma) is added to each well and incubated for 15 min. at room temperature.
Final compound concentrations are in the range from 45 μM to 20 nM.

Compound | pEC50
CC[C@H](C)[C@@H]1NC(=O)[C@H](CCCNC(=N)N)NC(=O)[C@H](CC(=O)O)NC(=O)[C@H](CC(C)C)NC(=O)[C@H](CCCCN)NC(=O)[C@H](Cc2c[nH]cn2)NC(=O)CNC(=O)[C@H](Cc2ccccc2)NC(=O)[C@H](Cc2c[nH]cn2)NC(=O)[C@@H](NC(=O)[C@@H](N)CCSC)CSSC[C@@H](C(N)=O)NC(=O)[C@H](CO)NC1=O [compound 20] (H-MCHFGHKLDRISC-NH2; disulfide 2-13) | > 5.30

Same assay, conditions: GTM-3 cells; group needs both EC50 and Emax criteria, checked A then B then C; read-out: Activity (group): NPR-B activation, EC50 and Emax (CNP = 100%)

Compound | pEC50
CC[C@H](C)[C@@H]1NC(=O)[C@H](CCCNC(=N)N)NC(=O)[C@H](CC(=O)O)NC(=O)[C@H](CC(C)C)NC(=O)[C@H](CCCCN)NC(=O)[C@H](CC(C)C)NC(=O)CNC(=O)[C@H](Cc2ccccc2)NC(=O)[C@H](Cc2c[nH]cn2)NC(=O)[C@@H](NC(=O)[C@@H](N)CCSC)CSSC[C@@H](C(=O)N[C@@H](Cc2ccc(O)cc2)C(=O)N[C@@H](CCCNC(=N)N)C(N)=O)NC(=O)[C@H](CO)NC1=O [compound 5] (H-MCHFGLKLDRISCYR-NH2; disulfide 2-13) | > 5.30
CC[C@H](C)[C@@H]1NC(=O)[C@H](CCCNC(=N)N)NC(=O)[C@H](CC(=O)O)NC(=O)[C@H](CC(C)C)NC(=O)[C@H](CCCCN)NC(=O)[C@H](CC(C)C)NC(=O)CNC(=O)[C@H](Cc2ccccc2)NC(=O)[C@H](C)NC(=O)[C@@H](NC(=O)[C@@H](N)CCSC)CSSC[C@@H](C(N)=O)NC(=O)[C@H](CO)NC1=O [compound 8] | > 5.30
CC[C@H](C)[C@@H]1NC(=O)[C@H](CCCNC(=N)N)NC(=O)[C@H](CC(=O)O)NC(=O)[C@H](CC(C)C)NC(=O)[C@H](CCCCN)NC(=O)[C@H](C)NC(=O)CNC(=O)[C@H](Cc2ccccc2)NC(=O)[C@H](Cc2c[nH]cn2)NC(=O)[C@@H](NC(=O)[C@@H](N)CCSC)CSSC[C@@H](C(N)=O)NC(=O)[C@H](CO)NC1=O [compound 9] (H-MCHFGAKLDRISC-NH2; disulfide 2-13) | > 4.82
CC[C@H](C)[C@@H]1NC(=O)[C@H](CCCNC(=N)N)NC(=O)[C@H](CC(=O)O)NC(=O)[C@H](CC(C)C)NC(=O)[C@H](CCCCN)NC(=O)[C@H](CC(C)C)NC(=O)CNC(=O)[C@H](Cc2ccccc2)NC(=O)[C@H](Cc2c[nH]cn2)NC(=O)[C@H](NC(=O)[C@@H](N)CCSC)CSSC[C@@H](C(N)=O)NC(=O)[C@H](CO)NC1=O [compound 11] | > 4.82
CC[C@H](C)[C@@H]1NC(=O)[C@H](CCCNC(=N)N)NC(=O)[C@H](CC(=O)O)NC(=O)[C@H](CC(C)C)NC(=O)[C@H](CCCCN)NC(=O)[C@H](CC(C)C)NC(=O)CNC(=O)[C@H](Cc2ccccc2)NC(=O)[C@H](Cc2c[nH]cn2)NC(=O)[C@H](NC(=O)[C@@H](N)CCSC)CSSC[C@H](C(N)=O)NC(=O)[C@H](CO)NC1=O [compound 13] | > 4.82
CC[C@H](C)[C@@H]1NC(=O)[C@H](CCCNC(=N)N)NC(=O)[C@H](CC(=O)O)NC(=O)[C@H](CC(C)C)NC(=O)[C@H](CCCCN)NC(=O)[C@H](CC(C)C)NC(=O)CNC(=O)[C@H](Cc2ccccc2)NC(=O)[C@H](Cc2c[nH]cn2)NC(=O)[C@@H](NC(=O)[C@@H](N)CCSC)CSSC[C@@H](C(=O)O)NC(=O)[C@H](CO)NC1=O [compound 15] | > 4.82
CC[C@H](C)[C@@H]1NC(=O)[C@H](CCCNC(=N)N)NC(=O)[C@H](CC(=O)O)NC(=O)[C@H](CC(C)C)NC(=O)[C@H](CCCCN)NC(=O)[C@H](CC(=O)O)NC(=O)CNC(=O)[C@H](Cc2ccccc2)NC(=O)[C@H](Cc2c[nH]cn2)NC(=O)[C@@H](NC(=O)[C@@H](N)CCSC)CSSC[C@@H](C(N)=O)NC(=O)[C@H](CO)NC1=O [compound 19] (H-MCHFGDKLDRISC-NH2; disulfide 2-13) | > 5.30
CC[C@H](C)[C@@H]1NC(=O)[C@H](CCCNC(=N)N)NC(=O)[C@H](CC(=O)O)NC(=O)[C@H](CC(C)C)NC(=O)[C@H](CCCCN)NC(=O)[C@H](CC(C)C)NC(=O)CNC(=O)[C@H](Cc2ccccc2)NC(=O)[C@H](Cc2c[nH]cn2)NC(=O)[C@@H](NC(=O)[C@@H](N)CCSC)CSSC[C@@H](C(=O)N[C@@H](Cc2c[nH]c3ccccc23)C(=O)N[C@@H](CCCNC(=N)N)C(N)=O)NC(=O)[C@H](CO)NC1=O [compound 21] (H-MCHFGLKLDRISCWR-NH2; disulfide 2-13) | > 4.82

Further lines, results first:

pEC50 | Compound
> 5.30 | CC[C@H](C)[C@@H]1NC(=O)[C@H](CCCNC(=N)N)NC(=O)[C@H](CC(=O)O)NC(=O)[C@H](CC(C)C)NC(=O)[C@H](CCCCN)NC(=O)[C@H](CC(C)C)NC(=O)CNC(=O)[C@H](Cc2ccccc2)NC(=O)[C@H](Cc2c[nH]cn2)NC(=O)[C@@H](NC(=O)[C@@H](N)CCSC)CSSC[C@@H](C(=O)N[C@@H](Cc2ccc(O)cc2)C(N)=O)NC(=O)[C@H](CO)NC1=O [compound 6] (H-MCHFGLKLDRISCY-NH2; disulfide 2-13)
> 5.30 | CC[C@H](C)[C@@H]1NC(=O)[C@H](CCCNC(=N)N)NC(=O)[C@H](CC(=O)O)NC(=O)[C@H](CC(C)C)NC(=O)[C@H](CCCCN)NC(=O)[C@H](CC(C)C)NC(=O)CNC(=O)[C@H](Cc2ccccc2)NC(=O)[C@H](Cc2c[nH]cn2)NC(=O)[C@@H](NC(=O)[C@@H](N)CCSC)CSSC[C@@H](C(N)=O)NC(=O)[C@H](CO)NC1=O [compound 7]
> 5.30 | CC[C@H](C)[C@@H]1NC(=O)[C@H](CCCNC(=N)N)NC(=O)[C@H](CC(=O)O)NC(=O)[C@H](CC(C)C)NC(=O)[C@H](CCCCN)NC(=O)[C@H](CC(C)C)NC(=O)CNC(=O)[C@H](Cc2ccccc2)NC(=O)[C@H](Cc2c[nH]cn2)NC(=O)[C@@H](NC(=O)[C@H](N)CCSC)CSSC[C@@H](C(N)=O)NC(=O)[C@H](CO)NC1=O [compound 10]
> 5.30 | CC[C@H](C)[C@@H]1NC(=O)[C@H](CCCNC(=N)N)NC(=O)[C@H](CC(=O)O)NC(=O)[C@H](CC(C)C)NC(=O)[C@H](CCCCN)NC(=O)[C@H](CC(C)C)NC(=O)CNC(=O)[C@H](Cc2ccccc2)NC(=O)[C@@H](Cc2c[nH]cn2)NC(=O)[C@@H](NC(=O)[C@@H](N)CCSC)CSSC[C@@H](C(N)=O)NC(=O)[C@H](CO)NC1=O [compound 12]
> 4.82 | CCCC[C@H](N)C(=O)N[C@H]1CSSC[C@@H](C(N)=O)NC(=O)[C@H](CO)NC(=O)[C@H]([C@@H](C)CC)NC(=O)[C@H](CCCNC(=N)N)NC(=O)[C@H](CC(=O)O)NC(=O)[C@H](CC(C)C)NC(=O)[C@H](CCCCN)NC(=O)[C@H](CC(C)C)NC(=O)CNC(=O)[C@H](Cc2ccccc2)NC(=O)[C@H](Cc2c[nH]cn2)NC1=O [compound 16]
> 5.30 | CC[C@H](C)[C@@H]1NC(=O)[C@H](CCCNC(=N)N)NC(=O)[C@H](CC(=O)O)NC(=O)[C@H](CC(C)C)NC(=O)[C@H](CCCCN)NC(=O)[C@H](CC(C)C)NC(=O)CNC(=O)[C@H](Cc2ccccc2)NC(=O)CNC(=O)[C@@H](NC(=O)[C@@H](N)CCSC)CSSC[C@@H](C(N)=O)NC(=O)[C@H](CO)NC1=O [compound 17]
> 5.30 | CC[C@H](C)[C@@H]1NC(=O)[C@H](CCCNC(=N)N)NC(=O)[C@H](CC(=O)O)NC(=O)[C@H](CC(C)C)NC(=O)[C@H](CCCCN)NC(=O)[C@H](CC(C)C)NC(=O)CNC(=O)[C@H](Cc2ccccc2)NC(=O)[C@H](CO)NC(=O)[C@@H](NC(=O)[C@@H](N)CCSC)CSSC[C@@H](C(N)=O)NC(=O)[C@H](CO)NC1=O [compound 18]
> 5.30 | CC[C@H](C)[C@@H]1NC(=O)[C@H](CCCNC(=N)N)NC(=O)[C@H](CC(=O)O)NC(=O)[C@H](CC(C)C)NC(=O)[C@H](CCCCN)NC(=O)[C@H](CC(C)C)NC(=O)CNC(=O)[C@H](Cc2ccccc2)NC(=O)[C@H](Cc2c[nH]cn2)NC(=O)[C@@H](NC(=O)[C@@H](N)CCSC)CSSC[C@@H](C(=O)N[C@@H](CC(N)=O)C(=O)N[C@@H](CCCNC(=N)N)C(N)=O)NC(=O)[C@H](CO)NC1=O [compound 22] (H-MCHFGLKLDRISCNR-NH2; disulfide 2-13)
